Test results from ChEMBL document CHEMBL1158576, “Coumabiocins A-F, aminocoumarins from an organic extract of Streptomyces sp. L-4-4” (2010).
Calls of active or inactive are those of the source. The calls are words filed in the database; no cut-off is given here.

Columns and labels:
Streptomyces [1] = assay: Growth inhibition in Streptomyces 85E at 10 ug/disk by hyphae formation inhibition assay; assay type: functional, organism-based
Streptomyces [2] = assay: Growth inhibition in Streptomyces 85E at 20 ug/disk by hyphae formation inhibition assay; assay type: functional, organism-based
Streptomyces [3] = assay: Growth inhibition in Streptomyces 85E at 5 ug/disk by hyphae formation inhibition assay; assay type: functional, organism-based
Streptomyces [4] = assay: Growth inhibition in Streptomyces 85E at 2.5 ug/disk by hyphae formation inhibition assay; assay type: functional, organism-based
Streptomyces [5] = assay: Growth inhibition in Streptomyces 85E assessed as clear zone of inhibition at 20 ug/disk by hyphae formation inhibition assay; assay type: functional; details: read-out: IZ
Streptomyces [6] = assay: Growth inhibition in Streptomyces 85E assessed as bald phenotype around disk at 5 ug/disk by hyphae formation inhibition assay; assay type: functional; details: read-out: IZ
Streptomyces [7] = assay: Growth inhibition in Streptomyces 85E assessed as clear zone of inhibition at 10 ug/disk by hyphae formation inhibition assay; assay type: functional; details: read-out: IZ
Streptomyces [8] = assay: Growth inhibition in Streptomyces 85E assessed as bald phenotype around disk at 10 ug/disk by hyphae formation inhibition assay; assay type: functional; details: read-out: IZ
Streptomyces [9] = assay: Growth inhibition in Streptomyces 85E assessed as bald phenotype around disk at 20 ug/disk by hyphae formation inhibition assay; assay type: functional; details: read-out: IZ
Streptomyces [10] = assay: Growth inhibition in Streptomyces 85E assessed as bald phenotype around disk at 2.5 ug/disk by hyphae formation inhibition assay; assay type: functional; details: read-out: IZ
Streptomyces [11] = assay: Growth inhibition in Streptomyces 85E assessed as clear zone of inhibition at 5 ug/disk by hyphae formation inhibition assay; assay type: functional; details: read-out: IZ

| Compound | inhibition zone (IZ) (Streptomyces [1]) | inhibition zone (IZ) (Streptomyces [2]) | inhibition zone (IZ) (Streptomyces [3]) | inhibition zone (IZ) (Streptomyces [4]) | zone of inhibition at 20 µg/disc (Streptomyces [5]) [mm] | zone of inhibition at 5 µg/disc (Streptomyces [6]) [mm] | zone of inhibition at 10 µg/disc (Streptomyces [7]) [mm] | zone of inhibition at 10 µg/disc (Streptomyces [8]) [mm] | zone of inhibition at 20 µg/disc (Streptomyces [9]) [mm] | zone of inhibition at 2.5 µg/disc (Streptomyces [10]) [mm] | zone of inhibition at 5 µg/disc (Streptomyces [11]) [mm] |
| --- | --- | --- | --- | --- | --- | --- | --- | --- | --- | --- | --- |
| C=C(C)C(O)Cc1cc(C(=O)Nc2c(O)c3ccc(O)c(C)c3oc2=O)ccc1O (configuration not stated) | inactive | inactive | inactive | inactive |  |  |  |  |  |  |  |
| CO[C@@H]1[C@@H](OC(N)=O)[C@@H](O)[C@H](Oc2ccc3c(O)c(NC(=O)c4ccc5c(c4)CC(C(C)C)O5)c(=O)oc3c2C)OC1(C)C (some centres not stated) [COMABIOCIN B] |  |  |  | inactive | 14 | 10 | 12 |  |  |  |  |
| CO[C@@H]1[C@@H](OC(N)=O)[C@@H](O)[C@H](Oc2ccc3c(O)c(NC(=O)c4ccc5c(c4)CC(C(C)(C)O)O5)c(=O)oc3c2C)OC1(C)C (some centres not stated) [COUMABIOCIN A] | inactive |  | inactive | inactive | 13 |  |  |  |  |  |  |
| CO[C@@H]1[C@@H](OC(N)=O)[C@@H](O)[C@H](Oc2ccc3c(O)c(NC(=O)c4ccc5c(c4)CCC(C)(C)O5)c(=O)oc3c2C)OC1(C)C [COUMABIOCIN C] |  |  | inactive | inactive | 15 |  | 10 |  |  |  |  |
| CO[C@@H]1[C@@H](OC(N)=O)[C@@H](O)[C@H](Oc2ccc3c(O)c(NC(=O)c4ccc5c(c4)CC(O)C(C)(C)O5)c(=O)oc3c2C)OC1(C)C (some centres not stated) [COUMABIOCIN D] | inactive |  | inactive | inactive | 10 |  |  |  |  |  |  |
| C=C(C)C(O)Cc1cc(C(=O)Nc2c(O)c3ccc(O[C@@H]4OC(C)(C)[C@H](OC)[C@@H](OC(N)=O)[C@H]4O)c(C)c3oc2=O)ccc1O (some centres not stated) [COUMABIOCIN E] | inactive |  | inactive | inactive | 11 |  |  |  |  |  |  |
| CO[C@@H]1[C@@H](O)[C@@H](OC(N)=O)[C@H](Oc2ccc3c(O)c(NC(=O)c4ccc(O)c(CC=C(C)C)c4)c(=O)oc3c2C)OC1(C)C [ISONOVOBIOCIN] |  |  | inactive | inactive |  |  |  | 9 | 10 |  |  |
| CO[C@@H]1[C@@H](OC(N)=O)[C@@H](O)[C@H](Oc2ccc3c(O)c(NC(=O)c4ccc(O)c(CC=C(C)C)c4)c(=O)oc3c2C)OC1(C)C [NOVOBIOCIN] |  |  |  |  | 20 |  | 18 |  |  | 18 | 15 |
